Measurements as given in patent US11084814B2, “Pyrido[3, 4-d]pyrimidine derivative and pharmaceutically acceptable salt thereof” (Teijin Pharma Limited, priority 2016, dated 2021).

Columns and labels:
CDK2/cyclin A2 = target: T1, CDK2/cyclin A2 (Homo sapiens, UniProt P24941); test: Human CDK2/cyclin A2 inhibitory activity (QS S Assist CDK2/Cyclin A2_FP Kit, IMAP fluorescent polarization); format: biochemical; conditions: read-out: CDK2 Activity symbol
T1 construct: purchased Carna Biosciences, Inc. QS S Assist CDK2/Cyclin A2_FP Kit
Experimental: Human CDK2/Cyclin A2 Inhibitory Activity
(§1) Each compound was analyzed for CDK2/cyclin A2 inhibitory activity with an assay kit (QS S Assist CDK2/Cyclin A2_FP Kit, available from Carna Biosciences, Inc.). This assay kit determines kinase activity on the basis of the IMAP technology by Molecular Devices. Specifically, the kinase activity is determined through quantification of a variation in fluorescent polarization caused by binding of a kinase-phosphorylated fluorescent substance to an IMAP-binding reagent.
An assay buffer was prepared by 10-fold dilution of the 10× assay buffer attached to the kit with distilled water, and each solution was prepared with the assay buffer. The assay buffer contained 20 mM HEPES (pH 7.4), 0.01% Tween 20, and 2 mM dithiothreitol. A test compound solution was prepared by dilution of the test compound with dimethyl sulfoxide (DMSO) to a concentration 100 times higher than the final concentration and then 25-fold dilution with the assay buffer to a concentration four times higher than the final concentration. An ATP/substrate/Metal solution was prepared by five-fold dilution of the 5×ATP/substrate/Metal solution attached to the kit with the assay buffer. An enzyme solution was prepared by dilution of the CDK2/cyclin A2 attached to the kit with the assay buffer to a concentration twice higher than the final concentration (final concentration of CDK2/cyclin A2: 2.5 ng/well). A detection reagent was prepared by five-fold dilution of 5×IMAP-binding buffer A with distilled water and 400-fold dilution of the IMAP-binding reagent with the diluted buffer.
(§2) The test compound solution (5 μL/well) and the ATP/substrate/Metal solution (5 μL/well) were added to a 384-well plate, and the enzyme solution or the assay buffer (10 μL/well) was added to the plate (total amount of the reaction mixture: 20 μL/well) for initiation of enzymatic reaction. […] The reaction was performed at room temperature for 60 minutes, and the detection reagent (60 μL/well) was then added to the plate, followed by further reaction for 30 minutes at room temperature under light shielding conditions. Subsequently, fluorescent polarization was determined with a microplate reader at an excitation wavelength of 485 nm and an emission wavelength of 535 nm.
The percent inhibition of enzyme activity was calculated for each test compound (note: enzyme activity=100% in the case of addition of the enzyme solution and addition of DMSO instead of the test compound solution, whereas enzyme activity […] in the case of addition of the assay buffer instead of the enzyme solution and addition of DMSO instead of the test compound solution). The percent inhibition of enzyme activity was fitted to a dose-response curve, to determine a 50% inhibitory concentration against CDK2/cyclin A2.
In each table, “+++” corresponds to IC50<10 nM, “++” 10 nM≤IC50<100 nM, and “+” 100 nM≤IC50.

CDK4/cyclin D3 = target: T2, CDK4/cyclin D3 (Homo sapiens, UniProt P11802); test: Human CDK4/cyclin D3 inhibitory activity (QS S Assist CDK4/Cyclin D3_FP Kit, IMAP fluorescent polarization); format: biochemical; conditions: read-out: CDK4 Activity symbol
T2 construct: purchased Carna Biosciences, Inc. QS S Assist CDK4/Cyclin D3_FP Kit
Experimental: Human CDK4/Cyclin D3 Inhibitory Activity
as §1, with “CDK4/cyclin D3” for “CDK2/cyclin A2”, “CDK4/Cyclin D3_FP” for “CDK2/Cyclin A2_FP”
Each solution was prepared with the 10× assay buffer attached to the kit or a separately prepared assay buffer having the same composition as the assay buffer attached to the kit. An assay buffer was prepared by 10-fold dilution of the 10× assay buffer with distilled water. The assay buffer contains 20 mM HEPES (pH 7.4), 0.01% Tween20, and 2 mM dithiothreitol. A test compound solution was prepared by dilution of the test compound with dimethyl sulfoxide (DMSO) to a concentration 100 times higher than the final concentration and then 25-fold dilution with the assay buffer to a concentration four times higher than the final concentration. An ATP/substrate/Metal solution was prepared by five-fold dilution of the 5×ATP/substrate/Metal solution attached to the kit with the assay buffer. An enzyme solution was prepared by dilution of the CDK4/cyclin D3 attached to the kit with the assay buffer to a concentration twice higher than the final concentration (final concentration of CDK4/cyclin D3: 12.5 to 25 ng/well). A detection reagent was prepared by five-fold dilution of each of 5×IMAP-binding buffer A and 5×IMAP-binding buffer B with distilled water, mixing of IMAP-binding buffer A with IMAP-binding buffer B at a ratio of 85:15, and 400-fold dilution of the IMAP-binding reagent with the mixed buffer.
as §2, with “for 45” for “for 60”
The percent inhibition of enzyme activity was calculated for each test compound (note: enzyme activity=100% in the case of addition of the enzyme solution and addition of DMSO instead of the test compound solution, whereas enzyme activity […] in the case of addition of the assay buffer instead of the enzyme solution, and addition of DMSO instead of the test compound solution). The percent inhibition of enzyme activity was fitted to a dose-response curve, to determine a 50% inhibitory concentration against CDK4/cyclin D3.
In each table, “+++” corresponds to IC50<10 nM. “++” 10 nM […] IC50<100 nM, and “+” 100 nM≤IC50.

T2 sequence (P11802 whole entry): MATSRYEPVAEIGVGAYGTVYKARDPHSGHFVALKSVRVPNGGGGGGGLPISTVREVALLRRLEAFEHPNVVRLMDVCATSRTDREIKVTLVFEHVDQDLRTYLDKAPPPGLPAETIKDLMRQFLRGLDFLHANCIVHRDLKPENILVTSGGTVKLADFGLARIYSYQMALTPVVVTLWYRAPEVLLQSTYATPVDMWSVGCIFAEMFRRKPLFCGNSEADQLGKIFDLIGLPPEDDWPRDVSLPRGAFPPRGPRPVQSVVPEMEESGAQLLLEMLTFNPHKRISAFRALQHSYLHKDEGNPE
T2 sequence (P30281 whole entry partner): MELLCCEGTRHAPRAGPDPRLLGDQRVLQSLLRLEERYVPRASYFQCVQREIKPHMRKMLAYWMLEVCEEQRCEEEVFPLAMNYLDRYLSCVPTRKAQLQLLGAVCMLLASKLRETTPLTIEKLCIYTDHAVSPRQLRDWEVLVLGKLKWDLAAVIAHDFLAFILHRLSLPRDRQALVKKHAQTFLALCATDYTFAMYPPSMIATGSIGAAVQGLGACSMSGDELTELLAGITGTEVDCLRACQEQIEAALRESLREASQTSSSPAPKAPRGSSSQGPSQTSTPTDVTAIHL

Row | SMILES | IC50 (CDK2/cyclin A2) | IC50 (CDK4/cyclin D3)
1 | CN1CCN(c2ccc(Nc3ncc4cc(CO)nc(N5CCOCC5)c4n3)nc2)CC1 [Compound 1] | ≥ 0.1 µM | < 0.01 µM
2 | CN1CCN(c2ccc(Nc3ncc4cc(CO)nc(N5CCCCC5)c4n3)nc2)CC1 [Compound 2] | ≥ 0.1 µM | < 0.01 µM
3 | CN1CCN(c2ccc(Nc3ncc4cc(CO)nc(N5CCCCC5=O)c4n3)nc2)CC1 [Compound 3] | ≥ 0.1 µM | ≥ 0.1 µM
4 | CN1CCN(c2ccc(Nc3ncc4cc(C(F)F)nc(N5CCOCC5)c4n3)nc2)CC1 [Compound 4] | ≥ 0.1 µM | 0.01 to 0.1 µM
5 | CN1CCN(c2ccc(Nc3ncc4cc(CO)nc(C5CCCCC5)c4n3)nc2)CC1 [Compound 5] | ≥ 0.1 µM | < 0.01 µM
6 | CN1CCN(c2ccc(Nc3ncc4cc(CO)nc(-c5ccccc5)c4n3)nc2)CC1 [Compound 6] | ≥ 0.1 µM | < 0.01 µM
7 | OCc1cc2cnc(Nc3ccc(N4CCNCC4)cn3)nc2c(N2CCOCC2)n1 [Compound 7] | ≥ 0.1 µM | < 0.01 µM
8 | FC(F)c1cc2cnc(Nc3ccc(N4CCNCC4)cn3)nc2c(N2CCOCC2)n1 [Compound 8] | ≥ 0.1 µM | 0.01 to 0.1 µM
9 | OCc1cc2cnc(Nc3ccc(N4CCNCC4)cn3)nc2c(N2CCCCC2)n1 [Compound 9] |  | < 0.01 µM
10 | OCc1cc2cnc(Nc3ccc(N4CCNCC4)cn3)nc2c(-c2ccccc2)n1 [Compound 10] |  | 0.01 to 0.1 µM
11 | FC(F)c1cc2cnc(Nc3ccc(N4CCNCC4)cn3)nc2c(N2CCCCC2)n1 [Compound 11] |  | < 0.01 µM
12 | FC(F)c1cc2cnc(Nc3ccc(N4CCNCC4)cn3)nc2c(-c2ccccc2)n1 [Compound 12] |  | < 0.01 µM
13 | CN1CCN(c2ccc(Nc3ncc4cc(C(F)F)nc(N5CCCCC5)c4n3)nc2)CC1 [Compound 13] |  | < 0.01 µM
14 | Cc1ccc(-c2nc(CO)cc3cnc(Nc4ccc(N5CCNCC5)cn4)nc23)cc1 [Compound 14] |  | < 0.01 µM
15 | Cc1ccccc1-c1nc(CO)cc2cnc(Nc3ccc(N4CCNCC4)cn3)nc12 [Compound 15] |  | 0.01 to 0.1 µM
16 | OCc1cc2cnc(Nc3ccc(N4CCNCC4)cn3)nc2c(-c2ccsc2)n1 [Compound 16] |  | < 0.01 µM
17 | OCc1cc2cnc(Nc3ccc(N4CCNCC4)cn3)nc2c(-c2ccoc2)n1 [Compound 17] |  | 0.01 to 0.1 µM
18 | Cc1ccc(-c2nc(CO)cc3cnc(Nc4ccc(N5CCN(C)CC5)cn4)nc23)cc1 [Compound 18] |  | < 0.01 µM
19 | Cc1ccccc1-c1nc(CO)cc2cnc(Nc3ccc(N4CCN(C)CC4)cn3)nc12 [Compound 19] |  | < 0.01 µM
20 | CN1CCN(c2ccc(Nc3ncc4cc(CO)nc(-c5ccsc5)c4n3)nc2)CC1 [Compound 20] |  | < 0.01 µM
21 | CN1CCN(c2ccc(Nc3ncc4cc(CO)nc(-c5ccoc5)c4n3)nc2)CC1 [Compound 21] |  | 0.01 to 0.1 µM
22 | CN1CCN(c2ccc(Nc3ncc4cc(CO)nc(C5=CCCCC5)c4n3)nc2)CC1 [Compound 22] |  | < 0.01 µM
23 | O=C(O)c1cc2cnc(Nc3ccc(N4CCNCC4)cn3)nc2c(N2CCCCC2)n1 [Compound 23] |  | ≥ 0.1 µM
24 | CC(O)c1cc2cnc(Nc3ccc(N4CCNCC4)cn3)nc2c(N2CCCCC2)n1 (stereo not shown) [Compound 24] | ≥ 0.1 µM | < 0.01 µM
25 | COC(=O)c1cc2cnc(Nc3ccc(N4CCNCC4)cn3)nc2c(N2CCCCC2)n1 [Compound 25] | ≥ 0.1 µM | 0.01 to 0.1 µM
26 | CC(=O)c1cc2cnc(Nc3ccc(N4CCNCC4)cn3)nc2c(N2CCCCC2)n1 [Compound 26] | ≥ 0.1 µM | 0.01 to 0.1 µM
27 | CN(C)C(=O)c1cc2cnc(Nc3ccc(N4CCNCC4)cn3)nc2c(N2CCCCC2)n1 [Compound 27] | ≥ 0.1 µM | 0.01 to 0.1 µM
28 | NC(=O)c1cc2cnc(Nc3ccc(N4CCNCC4)cn3)nc2c(N2CCCCC2)n1 [Compound 28] | ≥ 0.1 µM | 0.01 to 0.1 µM
29 | CNC(=O)c1cc2cnc(Nc3ccc(N4CCNCC4)cn3)nc2c(N2CCCCC2)n1 [Compound 29] | ≥ 0.1 µM | 0.01 to 0.1 µM

The remaining lines, values ahead:

Row | IC50 (CDK2/cyclin A2) | IC50 (CDK4/cyclin D3) | SMILES
30 | ≥ 0.1 µM | < 0.01 µM | Cc1ccccc1-c1nc(C(F)F)cc2cnc(Nc3ccc(N4CCNCC4)cn3)nc12 [Compound 30]
31 | ≥ 0.1 µM | 0.01 to 0.1 µM | COCc1cc2cnc(Nc3ccc(N4CCNCC4)cn3)nc2c(N2CCOCC2)n1 [Compound 32]
32 | ≥ 0.1 µM | < 0.01 µM | Cc1c(CO)nc(N2CCOCC2)c2nc(Nc3ccc(N4CCNCC4)cn3)ncc12 [Compound 33]
33 | ≥ 0.1 µM | 0.01 to 0.1 µM | CCC(O)c1cc2cnc(Nc3ccc(N4CCNCC4)cn3)nc2c(N2CCOCC2)n1 (stereo not shown) [Compound 34]
34 | ≥ 0.1 µM | 0.01 to 0.1 µM | OC(c1cc2cnc(Nc3ccc(N4CCNCC4)cn3)nc2c(N2CCOCC2)n1)C(F)(F)F (stereo not shown) [Compound 35, 2,2,2-trifluoro-1-(8-morpholino-2-((5-(piperazin-1-yl)pyridin-2-yl)amino)pyrido[3,4-d]pyrimidin-6-yl)ethanol]
35 | ≥ 0.1 µM | ≥ 0.1 µM | CC(F)(F)c1cc2cnc(Nc3ccc(N4CCNCC4)cn3)nc2c(N2CCOCC2)n1 [Compound 36]
36 | ≥ 0.1 µM | 0.01 to 0.1 µM | CC(C)(O)c1cc2cnc(Nc3ccc(N4CCNCC4)cn3)nc2c(N2CCOCC2)n1 [Compound 37]
37 | ≥ 0.1 µM | ≥ 0.1 µM | OCCc1cc2cnc(Nc3ccc(N4CCNCC4)cn3)nc2c(N2CCOCC2)n1 [Compound 38]
38 | ≥ 0.1 µM | < 0.01 µM | C[C@@H](O)c1cc2cnc(Nc3ccc(N4CCNCC4)nn3)nc2c(N2CCCC2C(=O)O)n1 (stereo partly shown) [Compound 39]
39 | ≥ 0.1 µM | < 0.01 µM | C[C@@H](O)c1cc2cnc(Nc3ccc(N4CCNCC4)nn3)nc2c(N2CCCC(C(=O)O)C2)n1 (stereo partly shown) [Compound 40]
40 | ≥ 0.1 µM | < 0.01 µM | C[C@@H](O)c1cc2cnc(Nc3ccc(N4CCNCC4)nn3)nc2c(N2CCCCC2C(=O)O)n1 (stereo partly shown) [Compound 41]
41 |  | < 0.01 µM | COC(C)c1cc2cnc(Nc3ccc(CN4CCNCC4)cn3)nc2c(N2CCCCC2)n1 (stereo not shown) [Compound 43]
42 |  | < 0.01 µM | COC(C)c1cc2cnc(Nc3ccc(CN4CCNCC4)cn3)nc2c(N2CCC3CCNC3C2)n1 (stereo not shown) [Compound 44]
43 |  | < 0.01 µM | COC(C)c1cc2cnc(Nc3ccc(CN4CCNCC4)cn3)nc2c(N2CCC(CO)CC2)n1 (stereo not shown) [Compound 45]
44 |  | < 0.01 µM | COCC1CCN(c2nc(C(C)OC)cc3cnc(Nc4ccc(CN5CCNCC5)cn4)nc23)CC1 (stereo not shown) [Compound 46]
45 |  | < 0.01 µM | CC(O)c1cc2cnc(Nc3ccc(CN4CCN(C)CC4)cn3)nc2c(N2CCOCC2C)n1 (stereo not shown) [Compound 291]
